Data on 1 molecule can be found in patent US6069235A, “Method for carbohydrate engineering of glycoproteins” (Monsanto Company, priority 1994, dated 2000).

A value given as a limit tells only on which side of the number the result lay.

One assay deals with T1, glucosidase I (Cricetulus griseus, UniProt A0A9J7K0I4).
T1 construct: endogenous in cells; host or cells: CHO-K1, transfected line 2.14 (the transfected gene is hsCD2, not glucosidase I)
T1 sequence (A0A9J7K0I4 1-834): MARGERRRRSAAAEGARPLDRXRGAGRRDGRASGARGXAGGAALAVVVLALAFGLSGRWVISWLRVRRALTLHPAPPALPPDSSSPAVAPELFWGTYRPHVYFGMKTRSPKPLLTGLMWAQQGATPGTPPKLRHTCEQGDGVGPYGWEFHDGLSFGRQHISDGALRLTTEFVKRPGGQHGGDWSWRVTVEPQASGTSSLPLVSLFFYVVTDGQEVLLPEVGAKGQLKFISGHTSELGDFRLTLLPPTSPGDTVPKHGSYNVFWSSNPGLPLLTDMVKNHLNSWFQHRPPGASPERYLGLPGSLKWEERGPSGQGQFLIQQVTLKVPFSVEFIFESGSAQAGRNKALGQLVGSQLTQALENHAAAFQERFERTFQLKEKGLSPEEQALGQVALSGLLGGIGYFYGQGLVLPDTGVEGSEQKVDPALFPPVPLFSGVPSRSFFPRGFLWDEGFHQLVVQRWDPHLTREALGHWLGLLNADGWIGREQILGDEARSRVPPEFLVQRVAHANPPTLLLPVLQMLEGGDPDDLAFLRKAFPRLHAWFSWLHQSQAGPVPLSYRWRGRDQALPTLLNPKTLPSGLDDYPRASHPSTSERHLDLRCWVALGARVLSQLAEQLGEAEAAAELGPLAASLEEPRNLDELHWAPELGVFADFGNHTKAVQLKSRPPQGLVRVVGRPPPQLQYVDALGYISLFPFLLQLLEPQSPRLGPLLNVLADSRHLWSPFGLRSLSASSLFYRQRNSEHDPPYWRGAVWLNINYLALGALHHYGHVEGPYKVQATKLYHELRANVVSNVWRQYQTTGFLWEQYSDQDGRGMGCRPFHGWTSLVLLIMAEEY
The assay can be described thus: Endo H sensitivity of hsCD2 secreted by transfected CHO-K1 cells (line 2.14) cultured with NB-DNJ. It counts as cell-based, Chinese hamster. The method, then: In initial optimization tests with NB-DNJ, 2×500 cm^2 flasks (Nunc) were seeded with line 2.14 cells in 75 ml glutamine-free medium GMEM-S (Gibco Ltd, Glasgow, U.K.) 10% Fetal Calf Serum (FCS) containing NB-DNJ at 0 mM, 0.5 mM, 1 mM, 1.5 mM or 2 mM. After 6 days 100 mls of CB2, 10% FCS containing sodium butyrate to give a final concentration of 2 mM and NB-DNJ at 0, 0.5 mM, 1 mM, 1.5 mM or 2 mM was added. Ten days after the addition of the butyrate, 0.5 ml samples of the supernatant were taken for comparison of secretion levels. The cultures were left for a total of 15 days before harvesting the supernatants. When large amounts of endo H treated hsCD2 were required for crystallization, the cells were grown to confluence in cell factories as described above and NB-DNJ was added with the sodium butyrate to a final concentration of 1.5 mM. These cultures were also left for a further 3-4 weeks prior to harvesting.
For analysis of endo H sensitivity after preparation of the hsCD2 in the presence of various concentrations of NB-DNJ, 10 μg aliquots of the purified glycoproteins were incubated with 4, 20 or 100 mU/ml endo H-(Boehringer Mannheim) in 30 μl of 100 mM sodium acetate, pH 5.2. One unit (U) of endo H is the enzyme activity which hydrolyzes one micromole […] of dansyl-Asn-(GlcNAc)2 -(Man)5 within one minute at 37° C., pH 5.5. After incubation overnight at 370 the digested samples were boiled in 1% SDS under reducing conditions prior to electrophoresis in 15% SDS-PAGE gels. For large-scale endo H treatment of hsCD2 for crystallization tests, 4 mgs of the purified glycoprotein was concentrated to 1-2 mg/ml in 0.1 M sodium acetate, pH 5.2, and then digested with 100 mU/ml endo H overnight at 370. […] The eluting protein was determined to be essentially free of contaminating hsCD2 bearing non-endo H sensitive oligosaccharides by SDS-PAGE on a 15% acrylamide gel. […]

Assay [1] deals with CHO-K1 line 2.14 cells secreting hsCD2. The assay can be described thus: Quantitative assay of hsCD2 expression level in line 2.14 cells cultured with NB-DNJ. It counts as cell-based, Chinese hamster. The conditions noted are these: 0.5-2 mM NB-DNJ. The procedure: For the expression of hsCD2, the Xba I-Bam H1 fragment was sub-cloned into the polylinker of pEE6.hcmv-GS (Bebbington and Hentschel, 1987; Davis et al., 1990). The expression construct (20 μg) was transfected with calcium phosphate into CHO-K1 cells and methionine sulfoximine-resistant clones were selected as described previously (Davis et al., 1990). To detect expression the conventional solid-phase, radioactive inhibition binding assay (Barclay and Ward, 1982) was used. This utilized human sCD2 domain 1 expressed as a fusion protein as described for rat CD2 domain 1 (Driscoll et al., 1991) adsorbed onto vinyl microtitre plates as a binding target and monitored inhibition of the binding of the anti-human CD2 mAb, X3 mAb to the plate; the bound mAb was detected with [I^125 ]-labelled rabbit anti-mouse F(ab'). For large scale production the highest-expressing cell line (line 2.14) was grown to confluence in cell factories (Nunc) and sodium butyrate was then added to a final concentration of 2 mM. The cultures were then left for a further 3-4 weeks prior to harvesting.
In initial optimization tests with NB-DNJ, 2×500 cm^2 flasks (Nunc) were seeded with line 2.14 cells in 75 ml glutamine-free medium GMEM-S (Gibco Ltd, Glasgow, U.K.) 10% Fetal Calf Serum (FCS) containing NB-DNJ at 0 mM, 0.5 mM, 1 mM, 1.5 mM or 2 mM. […]

Take `CCCCN1C[C@H](O)[C@@H](O)[C@H](O)[C@H]1CO` [NB-DNJ, N-butyl deoxynojirimycin]: the “oligosaccharides of hsCD2 converted to endo H sensitive structures” value on glucosidase I (N-butyldeoxynojirimycin added to cultures of non-mutant CHO cells) is recorded as > 85%. For the same molecule, the “inhibition of glucosidase I (judged by endo H sensitivity of hsCD2)” value against glucosidase I (NB-DNJ 1.5 mM in culture of line 2.14 CHO cells) was “complete”. On glucosidase I (highest concentration of NB-DNJ (2 mM)), the “hsCD2 remaining endo H resistant (densitometric analysis of gel)” value is on record as “approximately 15%”. Also, in assay [1], the “reduction in expression of hsCD2” value is given as “three- to four-fold reduction in expression”.
